Values quoted from earlier work, collected in article PMC2918392 (Journal of medicinal chemistry, 2010).

Legend:
µ-opioid receptor [1] = test system: µ-opioid receptor
µ-opioid receptor [2] = conditions: see also ref 1
[3] = test system: µ opioid receptors (guinea pig ileum); conditions: read-out: Functional Bioactivity GPI (IC50), ± S.E.M.

With Tyr-Pro-Phe-(2S,3S)-β-MePhe-NH2 as the substance, how does the “activity among EM analogues containing β-MePhe stereoisomers, in words” value (µ-opioid receptor [1]) read?
Its value is “highest activity”.

Which “affinity and selectivity of activation of µ-opioid receptors, in words” value (µ-opioid receptor [1]) does the source give for Tyr-Pro-Phe-Phe-NH2 [EM-2] here?
Its value is “high affinity and selectivity”.

And the “µ-opioid receptor selectivity, in words” value (µ-opioid receptor [2])?
Its value is “c Data from reference 16. Binding affinity based on competition against [^3H]naloxone in rat brain membranes. Data were not presented on the affinity of EM2 at the δ-opioid receptor in that preparation, as EM was shown to be highly selective for µ-opioid receptors (see also reference 1)”.

What about the IC50 [3] of the same substance?
The IC50 was 15 ± 2 nM.

With Tyr-Pro-Phe-Phe-OH as the substance, how does the “µ-opioid receptor agonist activity, in words” value (µ-opioid receptor [1]; C-terminal free acid) read?
The value was “completely devoid of µ-opioid receptor agonist activity”.

For Tyr-Pro-Trp-Phe-NH2 [EM-1], which “affinity and selectivity of activation of µ-opioid receptors, in words” value (µ-opioid receptor [1]) is on record?
Its value is “high affinity and selectivity”.
